Reference: patent US9162984B2, “Small-molecule modulators of melanin expression” (University of Rochester, priority 2007, dated 2015)

What was measured:
Assay type in all cases: cell-based, mice
[1] = tested on: melan-a murine melanocyte cell line; assay: Melanin induction screening in melan-a melanocytes; conditions: for activity for inducing melanin production: initial screening, 2.5 μM, 3 days, melanin normalized to cell count, vs DMSO
Description: (§1) The melan-a murine melanocyte cell line was chosen for library screening. This is a non-tumorogenic line of melanocytes derived from the skin of C57Bl/6J mice (Bennett et al., Int. J. Cancer 39:414 (1987), which is hereby incorporated by reference in its entirety). These cells are ideal for phenotypic melanin screening as they proliferate quickly, are highly differentiated, and have been extensively studied (Snyder et al., Chemistry & Biology 12(4):477 (2005), which is hereby incorporated by reference in its entirety). Melanocytes were cultured in RPMI 1640 media supplemented with 10% FBS and 0.2 μM TPA, at 37° C. under 5% CO2, 95% atmosphere. For screening, 1×10^5 melan-a melanocytes were plated in 24 well tissue culture plates in a volume of 2 ml. After 18 hr incubation, 1 ml of media was removed and replaced by 1 ml media doped with small molecule, forskolin positive control, or DMSO vehicle control for 3 days. Initial screening was performed at a 2.5 μM dose (0.01% DMSO). Cells were harvested by trypsinization, washed 2× with PBS (pH 7.2), and counted by hemocytometry. Cell counts were used to assess treatment effects on cell proliferation. Melanin production was quantified by lysing cell pellets in 800 μl of 1 M NaOH for 2 hrs on ice, vigorously resuspending the lysed material by pipette, reading the absorbance at 490 nm of 200 μl aliquots of total lysate, and referencing to a standard synthetic melanin (Sigma) curve. The 75 member library was screened in triplicate. Melanin production was normalized to cell count (A490/million cells) and fold change against DMSO was calculated (FIG. 2).

[2] = tested on: melan-a melanocytes; assay: Melanocyte dendricity by hematoxylin staining; conditions: 2.5 μM, 72 hours; untreated 36%
Experimental: Melanocytes are highly dendritic cells, and dendricity has been correlated with melanin production (Kosano et al., Biochim. Biophys. Acta 1499:11 (2000); Scott et al., J. Invest. Dermatol. 126:855 (2006), which are hereby incorporated by reference in their entirety). Dendricity was assessed by histochemical hematoxylin staining of melan-a melanocytes with and without 2.5 μM A7 treatment. 1×10^4 melan-a melanocytes were cultured onto vitrogen coated cover slips and treated with 2.5 μM A7 or vehicle control for 72 hours. Cells were fixed in 3.7% formalin/PBS, stained with hematoxylin, and imaged. Dendrites per cell were manually quantitated, and the percentage of cells with greater than 2 dendrites was calculated.

[3] = tested on: Tyrosinase; assay: Tyrosinase activity assay (tritiated water from L-tyrosine-3,5-[3H]) in lysates of treated melanocytes; conditions: 2.5 μM, 3 days; to a lesser degree than forskolin positive control
Description: To further understand the mode of action for A7, tyrosinase activity was quantitated. Tyrosinase functions to hydroxylate tyrosine to dopaquinone and L-DOPA in the first step of melanin production (Ito, Pigment Cell Res. 16:230 (2003), which is hereby incorporated by reference in its entirety). As such, increased tyrosinase activity leads to increased melanin production. Tyrosinase activity can be measured by monitoring the production of tritiated water upon the hydroxylation of L-tyrosine-3,5-[^3H] to L-DOPA (Pomerantz, J. Biol. Chem. 241(1):161 (1966); Park et al., J. Biol. Chem. 268:11742 (1993), which are hereby incorporated by reference in their entirety).
Similarly to library screening, in quadruplet, melanocytes were cultured with and without 2.5 μM small molecule treatment for 3 days. Resulting cell pellets were lysed in 75 μl of 80 mM K2PO4, 1% CHAPS, 2 mM PMSF, and PICO2 protease inhibitor cocktail (CalBioChem) for 2 hours on ice. Lysates were then pelleted (10 minutes, 4° C., 10,000 rpm) and protein concentration was determined by Bradford assay. […] Aliqouts of 1.0 ml of the tritiated water containing supernatant were transferred to scintillation vials containing 5.0 ml scintillation fluid, and ^3H levels were counted. […]

[4] = tested on: Tyrosinase; assay: Western blot analysis of cellular tyrosinase levels; conditions: treated melanocytes
[5] = tested on: melan-a murine melanocyte cell line; assay: Cell counts by hemocytometry to assess treatment effects on cell proliferation
Description: as §1, with “After 18 hr incubation, 1 ml of media was removed and replaced by 1 ml media doped with small molecule, forskolin positive control, or DMSO vehicle control for 3 days. Initial screening was performed at a 2.5 μM dose (0.01% DMSO).” left out, “Cell counts were used to assess treatment effects on cell proliferation.” left out, “The 75 member library was screened in triplicate.” left out

| Compound | activity for inducing melanin production [1] | other results |
| --- | --- | --- |
| O=C(NCCc1cccc(F)c1)c1ccco1 [Compound C7, N-(3-fluorophenethyl)furan-2-carboxamide] | some activity |  |
| O=C(NCc1ccco1)c1ccco1 [Compound C1, N-((furan-2-yl)methyl)furan-2-carboxamide] | some activity |  |
| CCc1nc2ccccc2cc1C(=O)NCCc1ccc(F)cc1 [Compound A5, N-(4-fluorophenethyl)-2-ethylquinoline-3-carboxamide] | some activity |  |
| CCc1nc2ccccc2cc1C(=O)NCCc1cccc(F)c1 [Compound A7, N-(3-fluorophenethyl)-2-ethylquinoline-3-carboxamide] | some activity | percentage of cells with greater than 2 dendrites [2]: 69%; tyrosinase activity in melanocyte culture [3]: increases tyrosinase activity; concentration giving the optimal melanogenic response ([1]; dose response, melanin quantity normalized to DMSO): 2.5 µM; ranking of melanin induction among hits ([1]; subsequent analysis of library hits): most active hit; cellular levels of tyrosinase [4]: not altered; effect on cell proliferation in dose response ([5]; concentrations up to 5 μM): no significant effect on cell proliferation; cytotoxic effects in cell culture ([5]; melanocytes in culture): does not exhibit cytotoxic effects |
| Cc1cc(NC(=O)c2c(F)c(F)c(F)c(F)c2F)no1 [Compound D12, 2,3,4,5,6-pentafluoro-N-(5-methylisoxazol-3-yl)benzamide] | some activity |  |
| CCCCNC(=O)c1ccco1 [Compound C2, N-butylfuran-2-carboxamide] | some activity |  |
| CC1(C)CCCC(C)(C)N1C(=O)c1ccco1 [Compound C10, (furan-2-yl)(2,2,6,6-tetramethylpiperidin-1-yl)methanone] | some activity |  |
| O=C(NCCc1ccc(F)cc1)c1ccco1 [Compound C5, N-(4-fluorophenethyl)furan-2-carboxamide] | some activity |  |
| O=C(c1ccc2c(c1)OCO2)N1CCN(c2ccc(F)cc2)CC1 [Compound E4, (benzo[d][1,3]dioxol-5-yl)(4-(4-fluorophenyl)piperazin-1-yl)methanone] | some activity |  |
| CC1(C)CCCC(C)(C)N1C(=O)c1c(F)c(F)c(F)c(F)c1F [Compound D10, (2,2,6,6-tetramethylpiperidin-1-yl)(perfluorophenyl)methanone] | some activity |  |
